These are literature values, as cited in patent US8613910B2, “Flavonoids as synergists for enhancing the action of self-tanning substances” (Merck Patent GmbH, priority 2005, dated 2013).

For this data set the following is noted: amongst the hydroxyflavone structures investigated, entire pH range.

The structures appear in SMILES notation.

For the molecule `O=c1c(O)c(-c2ccc(O)c(O)c2)oc2cc(O)cc(O)c12` [quercetin, 3,3′,4′,5,7-pentahydroxyflavone], the antioxidant action entry is reported as “greatest activity”.
